Bounds are passed on as bounds.

For test [1], the system named is HAP1 MTAP-deleted cell line. The experiment in a line: Viability assay, HAP1 MTAP-deleted cell line. The class given is cell-based. The conditions noted are these: Homo sapiens; viability assay, HAP1 MTAP-deleted cell line; read-out: Hap1 MTAP deleted viability IC50.
In test [2] the test system is SDMA in HAP1 MTAP-intact cell line (PRMT5 inhibition). The test is described as follows: SDMA in-cell western assay, HAP1 MTAP-intact cell line. Conditions: Homo sapiens, HAP1, read-out: Hap1 MTAP intact IC50.
The test system of test [3] is SDMA in HAP1 MTAP-deleted (MTAP-null) cell line (PRMT5 inhibition). The test is described as follows: SDMA in-cell western assay, HAP1 MTAP-deleted cell line. Conditions: for IC50 / IC90: Homo sapiens; for IC50: HAP1, read-out: Hap1 MTAP deleted IC50; for IC90: HAP1, read-out: Hap1 MTAP deleted IC90; for Hap1 MTAP intact/deleted ratio: ratio of SDMA IC50 in HAP1 MTAP-intact to HAP1 MTAP-deleted cell line.

Regarding `CC(c1ncccn1)N(Cc1ccc(C#N)cn1)C(=O)C(=O)Nc1cnc(N)c2cn[nH]c12` (stereo not shown) [Compound 135, N-(4-Amino-1H-pyrazolo[4,3-c]pyridin-7-yl)-N′-[(5-cyano-2-pyridyl)methyl]-N′-(1-pyrimidin-2-ylethyl)oxamide], the IC50 in test [1] is 0.1 to 1 µM; in test [2], greater than 0.05 µM; in test [3], 0.005 to 0.05 µM. The IC90 in test [3] is greater than 0.125 µM. Further, in test [3], the “Hap1 MTAP intact/deleted ratio” value is on record as “C (IC50 ratio of less than 15 fold)”.

Consider `NC(=O)c1ccc(CN(Cc2ncccn2)C(=O)C(=O)Nc2cnc(N)c3cn[nH]c23)nc1` [Compound 136, N-(4-amino-1H-pyrazolo[4.3-c]pyridin-7-yl)-N′-[(5-carbamoyl-2-pyridyl)methyl]-N′-(pyrimidin-2-ylmethyl)oxamide], for which the values for the IC50 in test [1], in test [2] and in test [3] were greater than 1 µM, greater than 0.05 µM and greater than 0.05 µM, respectively. Also, the IC90 in test [3] was greater than 0.125 µM. Besides, the “Hap1 MTAP intact/deleted ratio” value in test [3] is “C (IC50 ratio of less than 15 fold)”.

Regarding `CCC(c1ccc(C(F)(F)F)cn1)N(C)C(=O)C(=O)Nc1cnc(N)c2cn[nH]c12` (stereo not shown) [Compound 138, N-(4-amino-1H-pyrazolo[4,3-c]pyridin-7-yl)-N′-methyl-N′-[1-[5-(trifluoromethyl)-2-pyridyl]propyl]oxamide], the IC50 in test [1] lay within 0.1 to 1 µM. For the same compound, in test [2], the IC50 is greater than 0.05 µM. In addition, in test [3], the IC50 lay within 0.005 to 0.05 µM, the IC90 was 0.075 to 0.125 µM and the “Hap1 MTAP intact/deleted ratio” value is on record as “A (IC50 ratio greater than or equal to 30 fold)”.

`CC(c1ccccn1)N(Cc1ccccc1)C(=O)C(=O)Nc1cnc(N)c2cn[nH]c12` (stereo not shown) [Compound 139, N-(4-amino-1H-pyrazolo[4,3-c]pyridin-7-yl)-N′-benzyl-N′-[1-(2-pyridyl)ethyl]oxamide]: the IC50 in test [1] is less than 0.1 µM. The IC50 in test [2] was 0.005 to 0.05 µM. Further, in test [3], the IC50 is less than 0.005 µM, the IC90 was less than 0.075 µM and the “Hap1 MTAP intact/deleted ratio” value is listed as “A (IC50 ratio greater than or equal to 30 fold)”.

Take `COc1ncc(NC(=O)C(=O)N(Cc2ccc(C(F)(F)F)cn2)Cc2ccccc2C)cc1C(N)=O` [Compound 143]: in test [1], the IC50 is less than 0.1 µM. In test [2], the IC50 was greater than 0.05 µM. Also, in test [3], the IC50 is less than 0.005 µM, the IC90 is less than 0.075 µM and the “Hap1 MTAP intact/deleted ratio” value is recorded as “A (IC50 ratio greater than or equal to 30 fold)”.

Turning to `CCN(Cc1nccc2ccccc12)C(=O)C(=O)Nc1cnc(N)c2cn[nH]c12` [Compound 146, N-(4-amino-2H-pyrazolo[4,3-c]pyridin-7-yl)-N′-ethyl-N′-(1-isoquinolylmethyl)oxamide], the results for the IC50 in test [1], in test [2] and in test [3] were 0.1 to 1 µM, greater than 0.05 µM and less than 0.005 µM, respectively. The IC90 in test [3] fell in the range of 0.075 to 0.125 µM. Further, the “Hap1 MTAP intact/deleted ratio” value in test [3] is reported as “A (IC50 ratio greater than or equal to 30 fold)”.

On to `Nc1ncc(NC(=O)C(=O)N(Cc2ccccc2)CC2CCCCO2)c2[nH]ncc12` (stereo not shown) [Compound 148, N-(4-amino-1H-pyrazolo[4,3-c]pyridin-7-yl)-N′-benzyl-N′-(tetrahydropyran-2-ylmethyl)oxamide], for which the IC50 in test [1] lay within 0.1 to 1 µM. Besides, the IC50 in test [2] is greater than 0.05 µM. In addition, in test [3], the IC50 is less than 0.005 µM, the IC90 was 0.075 to 0.125 µM and the “Hap1 MTAP intact/deleted ratio” value is “A (IC50 ratio greater than or equal to 30 fold)”.

As to `Cc1cc(F)ccc1CN(Cc1ccccc1)C(=O)C(=O)Nc1cnc(N)c2cn[nH]c12` [Compound 149, N-(4-amino-1H-pyrazolo[4,3-c]pyridin-7-yl)-N′-benzyl-N′-[(4-fluoro-2-methyl-phenyl)methyl]oxamide], the IC50 in test [1] is less than 0.1 µM; in test [2], 0.005 to 0.05 µM; in test [3], less than 0.005 µM. In test [3], the IC90 was less than 0.075 µM. Further, the “Hap1 MTAP intact/deleted ratio” value in test [3] is “B (IC50 ratio greater than or equal to 15 fold but lower than 30 fold)”.

For the compound `CCN(Cc1ccc(S(F)(F)(F)(F)F)cc1)C(=O)C(=O)Nc1cnc(N)c2cn[nH]c12` [Compound 150, N-(4-amino-1H-pyrazolo[4,3-c]pyridin-7-yl)-N′-ethyl-N′-[[4-(pentafluoro-sulfanyl)phenyl]methyl]oxamide], the IC50 in test [1] was less than 0.1 µM; in test [2] it was 0.005 to 0.05 µM; in test [3], less than 0.005 µM. For the same compound, in test [3], the IC90 was less than 0.075 µM. Besides, the “Hap1 MTAP intact/deleted ratio” value in test [3] was “C (IC50 ratio of less than 15 fold)”.

Consider `CCN(Cc1ccccc1C)C(=O)C(=O)Nc1cnc(N)c2cn[nH]c12` [Compound 151, N-(4-amino-1H-pyrazolo[4,3-c]pyridin-7-yl)-N′-ethyl-N′-(0-tolylmethyl)oxamide], for which the IC50 in test [1] was less than 0.1 µM. For the same compound, in test [2], the IC50 was greater than 0.05 µM. In addition, in test [3], the IC50 is less than 0.005 µM, the IC90 lay in the range of 0.075 to 0.125 µM and the “Hap1 MTAP intact/deleted ratio” value is “A (IC50 ratio greater than or equal to 30 fold)”.

As for `CCC(C)CN(Cc1ccccn1)C(=O)C(=O)Nc1cnc(N)c2cn[nH]c12` (stereo not shown) [Compound 152, N-(4-amino-1H-pyrazolo[4,3-c]pyridin-7-yl)-N′-(2-methylbutyl)-N′-(2-pyridylmethyl)oxamide], the 50% inhibitory concentration (IC50) in test [1] is less than 0.1 µM. The IC50 in test [2] is greater than 0.05 µM. Moreover, in test [3], the IC50 was less than 0.005 µM, the IC90 was less than 0.075 µM and the “Hap1 MTAP intact/deleted ratio” value was “A (IC50 ratio greater than or equal to 30 fold)”.

Consider `Nc1ncc(NC(=O)C(=O)N(Cc2ccccc2)Cc2ncccc2C(F)(F)F)c2[nH]ncc12` [Compound 154, N-(4-amino-1H-pyrazolo[4,3-c]pyridin-7-yl)-N′-benzyl-N′-[[3-(trifluoromethyl)-2-pyridyl]methyl]oxamide], for which, in test [1], the IC50 was less than 0.1 µM. Further, the half-maximal inhibitory concentration (IC50) in test [2] lay within 0.005 to 0.05 µM. Further, in test [3], the IC50 is less than 0.005 µM, the IC90 was less than 0.075 µM and the “Hap1 MTAP intact/deleted ratio” value is “A (IC50 ratio greater than or equal to 30 fold)”.

As to `Cc1ccccc1CN(CC1CC1)C(=O)C(=O)Nc1cnc(N)c2cn[nH]c12` [Compound 155, N-(4-amino-1H-pyrazolo[4,3-c]pyridin-7-yl)-N′-(cyclopropylmethyl)-N′-(o-tolylmethyl)oxamide], the IC50 in test [1] is less than 0.1 µM; in test [2], greater than 0.05 µM; in test [3], less than 0.005 µM. In addition, the IC90 in test [3] was less than 0.075 µM. Besides, the “Hap1 MTAP intact/deleted ratio” value in test [3] is “A (IC50 ratio greater than or equal to 30 fold)”.

With `Cc1ccnc(CN(Cc2ccccc2)C(=O)C(=O)Nc2cnc(N)c3cn[nH]c23)c1` [Compound 156, N-(4-amino-1H-pyrazolo[4,3-c]pyridin-7-yl)-N′-benzyl-N′-[(4-methyl-2-pyridyl)methyl]oxamide], in test [1], the IC50 is less than 0.1 µM. The IC50 in test [2] was greater than 0.05 µM. For the same compound, in test [3], the IC50 is less than 0.005 µM, the IC90 was less than 0.075 µM and the “Hap1 MTAP intact/deleted ratio” value is “A (IC50 ratio greater than or equal to 30 fold)”.

For the compound `CN(Cc1ccc(C(F)(F)C(F)(F)F)cc1F)C(=O)C(=O)Nc1cnc(N)c2cn[nH]c12` [Compound 157], the IC50 in test [1] was less than 0.1 µM; in test [2], greater than 0.05 µM; in test [3], less than 0.005 µM. For the same compound, in test [3], the IC90 was less than 0.075 µM. The “Hap1 MTAP intact/deleted ratio” value in test [3] is listed as “A (IC50 ratio greater than or equal to 30 fold)”.

In the case of `Nc1ncc(NC(=O)C(=O)N(Cc2ccccc2)Cc2ccc(Cl)cn2)c2[nH]ncc12` [Compound 158, N-(4-amino-1H-pyrazolo[4,3-c]pyridin-7-yl)-N′-benzyl-N′-[(5-chloro-2-pyridyl)methyl]oxamide], the IC50 in test [1] was less than 0.1 µM. The IC50 in test [2] fell in the range of 0.005 to 0.05 µM. Also, in test [3], the IC50 was less than 0.005 µM, the IC90 is less than 0.075 µM and the “Hap1 MTAP intact/deleted ratio” value is “C (IC50 ratio of less than 15 fold)”.

`Nc1ncc(NC(=O)C(=O)N(Cc2ccc(C(F)(F)F)cn2)C2CC2)c2[nH]ncc12` [Compound 159, N-(4-Amino-1H-pyrazolo[4,3-c]pyridin-7-yl)-N′-cyclopropyl-N′-[[5-(trifluoromethyl)-2-pyridyl]methyl]oxamide]: the IC50 in test [1] was less than 0.1 µM; in test [2], greater than 0.05 µM; in test [3], less than 0.005 µM. For the same compound, the IC90 in test [3] lay within 0.075 to 0.125 µM. Besides, the “Hap1 MTAP intact/deleted ratio” value in test [3] is “B (IC50 ratio greater than or equal to 15 fold but lower than 30 fold)”.

Take `CC(C)CN(Cc1ccccn1)C(=O)C(=O)Nc1cnc(N)c2cn[nH]c12` [Compound 160, N-(4-amino-1H-pyrazolo[4,3-c]pyridin-7-yl)-N′-isobutyl-N′-(2-pyridylmethyl)oxamide]: in test [1], the IC50 lay within 0.1 to 1 µM. In addition, the IC50 in test [2] is greater than 0.05 µM. In test [3], the concentration for half-maximal inhibition (IC50) was less than 0.005 µM, the IC90 fell in the range of 0.075 to 0.125 µM and the “Hap1 MTAP intact/deleted ratio” value is “A (IC50 ratio greater than or equal to 30 fold)”.

Take `Nc1ncc(NC(=O)C(=O)N(Cc2ccc(C(F)(F)F)cn2)Cc2ccccc2C(F)(F)F)c2[nH]ncc12` [Compound 163, N-(4-amino-1H-pyrazolo[4,3-c]pyridin-7-yl)-N′-[[2-(trifluoromethyl)phenyl]methyl]-N′-[[5-(trifluoromethyl)-2-pyridyl]methyl]oxamide]: in test [1], the IC50 was less than 0.1 µM. Moreover, the IC50 in test [2] lay in the range of 0.005 to 0.05 µM. Further, in test [3], the IC50 is 0.005 to 0.05 µM, the IC90 lay in the range of 0.075 to 0.125 µM and the “Hap1 MTAP intact/deleted ratio” value is on record as “C (IC50 ratio of less than 15 fold)”.

Take `CC(C)CN(C(=O)C(=O)Nc1cnc(N)c2cn[nH]c12)[C@@H](C)c1ccccc1` [Compound 165, (S)—N^1-(4-amino-1H-pyrazolo[4,3-c]pyridin-7-yl)-N^2-isobutyl-N^2-(1-phenylethyl)oxalamide]: in test [1], the IC50 is less than 0.1 µM. The IC50 in test [2] is greater than 0.05 µM. Further, in test [3], the IC50 lay within 0.005 to 0.05 µM, the IC90 lay in the range of 0.075 to 0.125 µM and the “Hap1 MTAP intact/deleted ratio” value is on record as “A (IC50 ratio greater than or equal to 30 fold)”.

One may read the IC50 as the concentration that inhibits the measured activity by half. In general, IC90 refers to the point of the concentration-response curve where the effect stands at 90%.

For the origin of these results see US20250136594A1 (Tango Therapeutics, Inc., priority 2022, published 2025).
